Bounds are passed on as bounds.

Common to all, as to assay type: biochemical
Assay [1] concerns the target T1, hCA II (Homo sapiens, UniProt P00918).
T1 construct: made in house
The experiment in a line: stopped-flow CO2 hydrase assay, hCA II. The settings on record: recombinant enzyme, 15 min preincubation, pH 8.3, mean from 3 assays.
Protocol: (§1) An Applied Photophysics stopped-flow instrument (Applied Photophysics, Leatherhead, UK) was used for assaying the CA-catalyzed CO2 hydration activity [31]. […] The uncatalyzed rates were determined in the same manner and subtracted from the total observed rates. Stock solutions of inhibitor (0.1 mM) were prepared in distilled-deionized water and dilutions up to 0.005 nM were done thereafter with the assay buffer. Inhibitor and enzyme solutions were preincubated together for 15 min at room temperature prior to assay, in order to allow formation of the E–I complex. The inhibition constants were obtained by non-linear least-squares methods using PRISM 3 and the ChengPrusoff equation, as reported earlier, and represent the mean from at least three different determinations. All CA isozymes were recombinant ones obtained in-house.

For assay [2], the target named is T2, hCA IV (Homo sapiens, UniProt P22748).
T2 construct: made in house
The experiment in a line: stopped-flow CO2 hydrase assay, hCA IV. As to conditions: recombinant enzyme, 15 min preincubation, pH 8.3, mean from 3 assays.
Protocol: as §1

Assay [3] has as its target T3, hCA IX (Homo sapiens, UniProt Q16790).
T3 construct: made in house
The assay is described as follows: stopped-flow CO2 hydrase assay, hCA IX. The settings on record: for Selectivity II/IX: ratio Ki hCA II / Ki hCA IX; for Ki: recombinant enzyme, 15 min preincubation, pH 8.3, mean from 3 assays.
Protocol: as §1

Assay [4] has as its target T4, hCA I (Homo sapiens, UniProt P00915).
T4 construct: made in house
The experiment in a line: stopped-flow CO2 hydrase assay, hCA I. As to conditions: recombinant enzyme, 15 min preincubation, pH 8.3, mean from 3 assays.
Protocol: as §1

Assay [5] deals with T5, hCA XII (Homo sapiens, UniProt O43570).
T5 construct: made in house
The experiment in a line: stopped-flow CO2 hydrase assay, hCA XII. As to conditions: for Selectivity II/XII: ratio Ki hCA II / Ki hCA XII; for Ki: recombinant enzyme, 15 min preincubation, pH 8.3, mean from 3 assays.
Protocol: as §1

T5 sequence (O43570 25-354): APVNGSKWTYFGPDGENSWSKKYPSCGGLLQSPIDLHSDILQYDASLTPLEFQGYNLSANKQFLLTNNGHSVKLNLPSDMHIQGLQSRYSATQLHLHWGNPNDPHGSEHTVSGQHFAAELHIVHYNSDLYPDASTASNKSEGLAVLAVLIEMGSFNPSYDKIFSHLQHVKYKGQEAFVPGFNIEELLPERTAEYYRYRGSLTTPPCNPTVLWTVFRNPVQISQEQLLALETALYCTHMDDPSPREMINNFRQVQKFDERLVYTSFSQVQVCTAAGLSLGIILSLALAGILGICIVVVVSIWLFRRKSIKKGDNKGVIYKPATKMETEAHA
T4 sequence (P00915 whole entry): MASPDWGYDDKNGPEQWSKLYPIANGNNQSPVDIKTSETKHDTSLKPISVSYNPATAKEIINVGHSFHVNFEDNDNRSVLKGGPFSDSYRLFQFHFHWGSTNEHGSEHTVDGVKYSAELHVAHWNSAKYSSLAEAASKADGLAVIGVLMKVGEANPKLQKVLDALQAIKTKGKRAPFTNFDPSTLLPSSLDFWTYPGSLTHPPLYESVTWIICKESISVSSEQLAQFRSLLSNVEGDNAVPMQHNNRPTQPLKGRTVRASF
T2 sequence (P22748 19-312): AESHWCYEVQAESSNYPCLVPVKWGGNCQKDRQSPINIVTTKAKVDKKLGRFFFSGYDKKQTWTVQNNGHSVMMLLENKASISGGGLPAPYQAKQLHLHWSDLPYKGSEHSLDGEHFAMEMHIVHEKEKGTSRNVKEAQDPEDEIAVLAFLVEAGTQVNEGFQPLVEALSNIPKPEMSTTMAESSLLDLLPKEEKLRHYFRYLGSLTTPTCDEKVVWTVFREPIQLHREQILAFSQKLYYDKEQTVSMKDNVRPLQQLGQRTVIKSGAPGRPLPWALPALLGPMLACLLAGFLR

As usually defined, the Ki is the equilibrium dissociation constant of an inhibitor or competing ligand from its target. For the molecule `CC(Nc1nc(Nc2ccc(S(N)(=O)=O)cc2)nc(NC(C)C(=O)O)n1)C(=O)O` (stereo not shown) [compound 4], the Ki is 782 nM in assay [1]; 0.0881 µM in assay [2]; 515 nM in assay [3]; 5540 nM in assay [4]; 8.88 nM in assay [5]. Further, the “Selectivity II/IX” value in assay [3] is reported as 1.52. In addition, the “Selectivity II/XII” value in assay [5] came out at 88.10.
Turning to `NS(=O)(=O)c1ccc(Nc2nc(NC(Cc3ccc(O)cc3)C(=O)O)nc(NC(Cc3ccc(O)cc3)C(=O)O)n2)cc1` (stereo not shown) [compound 5], the Ki in assay [1] is 3.61 nM; in assay [2], 0.0746 µM; in assay [3], 57.8 nM; in assay [4] it was 98.3 nM; in assay [5] it was 9.41 nM. In assay [3], the “Selectivity II/IX” value is listed as 0.06. Moreover, the “Selectivity II/XII” value in assay [5] is 0.40.
Take `NS(=O)(=O)c1ccc(Nc2nc(N[C@@H](Cc3c[nH]c4ccccc34)C(=O)O)nc(N[C@@H](Cc3c[nH]c4ccccc34)C(=O)O)n2)cc1` [compound 6]: the Ki was found to be 1.61 nM in assay [1]; 0.0593 µM in assay [2]; 45.2 nM in assay [3]; 48.3 nM in assay [4]; 8.21 nM in assay [5]. In addition, the “Selectivity II/IX” value in assay [3] is 0.04. For the same molecule, the “Selectivity II/XII” value in assay [5] worked out at 0.20.
Turning to `NS(=O)(=O)c1ccc(Nc2nc(NC(CO)C(=O)O)nc(NC(CO)C(=O)O)n2)cc1` (stereo not shown) [compound 7], the Ki was 523 nM in assay [1]; 8.7 µM in assay [2]; 465 nM in assay [3]; 6560 nM in assay [4]; 71.9 nM in assay [5]. The “Selectivity II/IX” value in assay [3] was found to be 1.12. The “Selectivity II/XII” value in assay [5] turned out to be 7.30.
Consider `CC(O)C(Nc1nc(Nc2ccc(S(N)(=O)=O)cc2)nc(NC(C(=O)O)C(C)O)n1)C(=O)O` (stereo not shown) [compound 8], for which the Ki stood at 904 nM in assay [1]; 4.91 µM in assay [2]; 867 nM in assay [3]; 7270 nM in assay [4]; 34.6 nM in assay [5]. Moreover, the “Selectivity II/IX” value in assay [3] came out at 1.04. Also, the “Selectivity II/XII” value in assay [5] is 26.10.
With `NC(=O)CC(Nc1nc(Nc2ccc(S(N)(=O)=O)cc2)nc(NC(CC(N)=O)C(=O)O)n1)C(=O)O` (stereo not shown) [compound 9], the Ki in assay [1] was 656 nM; in assay [2], 5.33 µM; in assay [3], 895 nM; in assay [4], above 10000 nM; in assay [5], 38.4 nM. The “Selectivity II/IX” value in assay [3] turned out to be 0.73. For the same molecule, the “Selectivity II/XII” value in assay [5] is listed as 17.10.
Take `NC(=O)CCC(Nc1nc(Nc2ccc(S(N)(=O)=O)cc2)nc(NC(CCC(N)=O)C(=O)O)n1)C(=O)O` (stereo not shown) [compound 10]: the Ki was found to be 775 nM in assay [1]; 8.41 µM in assay [2]; 625 nM in assay [3]; 9200 nM in assay [4]; 68.3 nM in assay [5]. Further, the “Selectivity II/IX” value in assay [3] was 1.24. Further, the “Selectivity II/XII” value in assay [5] came out at 11.30.
Consider `CC(Nc1nc(NCc2ccc(S(N)(=O)=O)cc2)nc(NC(C)C(=O)O)n1)C(=O)O` (stereo not shown) [compound 11, 2,2′-[(6-({4-sulfamoylbenzyl}amino)-1,3,5-triazine-2,4-diyl)diimino]dipropanoic acid], for which the Ki is 182 nM in assay [1]; 0.47 µM in assay [2]; 63.5 nM in assay [3]; 636 nM in assay [4]; 9.3 nM in assay [5]. In addition, in assay [3], the “Selectivity II/IX” value was found to be 2.87. The “Selectivity II/XII” value in assay [5] was 19.60.
As for `NS(=O)(=O)c1ccc(CNc2nc(NC(Cc3ccc(O)cc3)C(=O)O)nc(NC(Cc3ccc(O)cc3)C(=O)O)n2)cc1` (stereo not shown) [compound 12, 2,2′-[(6-({4-sulfamoylbenzyl}amino)-1,3,5-triazine-2,4-diyl)diimino]bis(3-(4-hydroxyphenyl)propanoic acid)], the Ki came to 53.1 nM in assay [1]; 0.244 µM in assay [2]; 87.3 nM in assay [3]; 75.7 nM in assay [4]; 8.7 nM in assay [5]. For the same molecule, in assay [3], the “Selectivity II/IX” value is 0.61. For the same molecule, the “Selectivity II/XII” value in assay [5] was determined as 6.10.
As for `NS(=O)(=O)c1ccc(CNc2nc(NC(Cc3c[nH]c4ccccc34)C(=O)O)nc(NC(Cc3c[nH]c4ccccc34)C(=O)O)n2)cc1` (stereo not shown) [compound 13, 2,2′-[(6-({4-sulfamoylbenzyl}amino)-1,3,5-triazine-2,4-diyl)diimino]bis(3-(1H-indol-3-yl)propanoic acid)], the Ki in assay [1] was 6.22 nM; in assay [2], 0.0936 µM; in assay [3], 66.4 nM; in assay [4], 30.5 nM; in assay [5], 8.6 nM. Besides, the “Selectivity II/IX” value in assay [3] is 0.09. In addition, in assay [5], the “Selectivity II/XII” value is reported as 0.70.
Take `NS(=O)(=O)c1ccc(CNc2nc(NC(CO)C(=O)O)nc(NC(CO)C(=O)O)n2)cc1` (stereo not shown) [compound 14, 2,2′-[(6-({4-sulfamoylbenzyl}amino)-1,3,5-triazine-2,4-diyl)diimino]bis(3-hydroxypropanoic acid)]: the inhibition constant Ki stood at 252 nM in assay [1]; 6.1 µM in assay [2]; 263 nM in assay [3]; 653 nM in assay [4]; 81.5 nM in assay [5]. For the same molecule, the “Selectivity II/IX” value in assay [3] was 0.96. Moreover, in assay [5], the “Selectivity II/XII” value was 3.10.
For the molecule `CC(O)C(Nc1nc(NCc2ccc(S(N)(=O)=O)cc2)nc(NC(C(=O)O)C(C)O)n1)C(=O)O` (stereo not shown) [compound 15, 2,2′-[(6-({4-sulfamoylbenzyl}amino)-1,3,5-triazine-2,4-diyl)diimino]bis(3-hydroxybutanoic acid)], the Ki was 76.6 nM in assay [1]; above 10 µM in assay [2]; 365 nM in assay [3]; 684 nM in assay [4]; 44.9 nM in assay [5]. The “Selectivity II/IX” value in assay [3] was 0.21. Also, the “Selectivity II/XII” value in assay [5] was determined as 1.70.
Take `NC(=O)CC(Nc1nc(NCc2ccc(S(N)(=O)=O)cc2)nc(NC(CC(N)=O)C(=O)O)n1)C(=O)O` (stereo not shown) [compound 16, 2,2′-[(6-({4-sulfamoylbenzyl}amino)-1,3,5-triazine-2,4-diyl)diimino]bis(3-carbamoylpropanoic acid)]: the Ki was 251 nM in assay [1]; above 10 µM in assay [2]; 95.3 nM in assay [3]; 834 nM in assay [4]; 44 nM in assay [5]. In addition, the “Selectivity II/IX” value in assay [3] was found to be 2.63. The “Selectivity II/XII” value in assay [5] stood at 5.70.
As to `NC(=O)CCC(Nc1nc(NCc2ccc(S(N)(=O)=O)cc2)nc(NC(CCC(N)=O)C(=O)O)n1)C(=O)O` (stereo not shown) [compound 17, 2,2′-[(6-({4-sulfamoylbenzyl}amino)-1,3,5-triazine-2,4-diyl)diimino]bis(4-carbamoylbutanoic acid)], the Ki in assay [1] is 239 nM; in assay [2], above 10 µM; in assay [3], 458 nM; in assay [4], 695 nM; in assay [5] it was 34.3 nM. The “Selectivity II/IX” value in assay [3] is recorded as 0.52. Besides, the “Selectivity II/XII” value in assay [5] was 7.00.
On to `CC(Nc1nc(NCCc2ccc(S(N)(=O)=O)cc2)nc(NC(C)C(=O)O)n1)C(=O)O` (stereo not shown) [compound 18, 2,2′-[(6-({2-(4-sulfamoylphenyl)ethyl}amino)-1,3,5-triazine-2,4-diyl)diimino]dipropanoic acid], for which the Ki in assay [1] stood at 169 nM; in assay [2], 3.86 µM; in assay [3], 78.8 nM; in assay [4], 787 nM.
On to `NS(=O)(=O)c1ccc(CCNc2nc(NC(Cc3ccc(O)cc3)C(=O)O)nc(NC(Cc3ccc(O)cc3)C(=O)O)n2)cc1` (stereo not shown) [compound 19, 2,2′-[(6-({2-(4-sulfamoylphenyl)ethyl}amino)-1,3,5-triazine-2,4-diyl)diimino]bis(3-(4-hydroxyphenyl)propanoic acid)], for which the Ki in assay [1] was 12.8 nM; in assay [2], 0.879 µM; in assay [3] it was 61.1 nM; in assay [4], 60.8 nM; in assay [5] it was 7.5 nM. The “Selectivity II/IX” value in assay [3] turned out to be 0.21. Moreover, the “Selectivity II/XII” value in assay [5] is on record as 1.70.
Consider `NS(=O)(=O)c1ccc(CCNc2nc(NC(Cc3c[nH]c4ccccc34)C(=O)O)nc(NC(Cc3c[nH]c4ccccc34)C(=O)O)n2)cc1` (stereo not shown) [compound 20, 2,2′-[(6-({2-(4-sulfamoylphenyl)ethyl}amino)-1,3,5-triazine-2,4-diyl)diimino]bis(3-(1H-indol-3-yl)propanoic acid)], for which the Ki in assay [1] came out at 3.54 nM; in assay [2] it was 0.542 µM; in assay [3], 308 nM; in assay [4], 41.4 nM; in assay [5] it was 8.4 nM. Further, in assay [3], the “Selectivity II/IX” value is 0.01. Also, in assay [5], the “Selectivity II/XII” value was determined as 0.40.
Take `NS(=O)(=O)c1ccc(CCNc2nc(NC(CO)C(=O)O)nc(NC(CO)C(=O)O)n2)cc1` (stereo not shown) [compound 21, 2,2′-[(6-({2-(4-sulfamoylphenyl)ethyl}amino)-1,3,5-triazine-2,4-diyl)diimino]bis(3-hydroxypropanoic acid)]: the Ki is 273 nM in assay [1]; above 10 µM in assay [2]; 85.5 nM in assay [3]; 819 nM in assay [4]; 27.1 nM in assay [5]. In assay [3], the “Selectivity II/IX” value is reported as 3.19. In addition, the “Selectivity II/XII” value in assay [5] was found to be 10.10.
For the molecule `CC(O)C(Nc1nc(NCCc2ccc(S(N)(=O)=O)cc2)nc(NC(C(=O)O)C(C)O)n1)C(=O)O` (stereo not shown) [compound 22, 2,2′-[(6-({2-(4-sulfamoylphenyl)ethyl}amino)-1,3,5-triazine-2,4-diyl)diimino]bis(3-hydroxybutanoic acid)], the Ki in assay [1] was 259 nM; in assay [2], above 10 µM; in assay [3], 89.5 nM; in assay [4], 829 nM; in assay [5] it was 62.7 nM. Further, the “Selectivity II/IX” value in assay [3] was determined as 2.89. For the same molecule, the “Selectivity II/XII” value in assay [5] came out at 4.10.

The record behind these values is paper PMC8537140, “Synthesis and Inhibition Activity Study of Triazinyl-Substituted Amino(alkyl)-benzenesulfonamide Conjugates with Polar and Hydrophobic Amino Acids as Inhibitors of Human Carbonic Anhydrases I, II, IV, IX, and XII” (International Journal of Molecular Sciences, 2021).
